Test results: patent US10934263B2, “Charged ion channel blockers and methods for use” (Nocion Therapeutics, Inc., priority 2019, dated 2021)

How the values were obtained:
[1] = target: T1, NaV1.7 (Homo sapiens, UniProt Q15858); experiment: Whole cell patch clamp, internal block of NaV1.7 current (compound in internal solution); type: cell-based; details: compound applied internally, manual patch clamp, read-out: Nav1.7 Intracellular Inhibition
T1 construct: expressed in transfected cells; tetracycline-inducible, kept under hygromycin and blasticidin
T1 sequence (Q15858 whole entry): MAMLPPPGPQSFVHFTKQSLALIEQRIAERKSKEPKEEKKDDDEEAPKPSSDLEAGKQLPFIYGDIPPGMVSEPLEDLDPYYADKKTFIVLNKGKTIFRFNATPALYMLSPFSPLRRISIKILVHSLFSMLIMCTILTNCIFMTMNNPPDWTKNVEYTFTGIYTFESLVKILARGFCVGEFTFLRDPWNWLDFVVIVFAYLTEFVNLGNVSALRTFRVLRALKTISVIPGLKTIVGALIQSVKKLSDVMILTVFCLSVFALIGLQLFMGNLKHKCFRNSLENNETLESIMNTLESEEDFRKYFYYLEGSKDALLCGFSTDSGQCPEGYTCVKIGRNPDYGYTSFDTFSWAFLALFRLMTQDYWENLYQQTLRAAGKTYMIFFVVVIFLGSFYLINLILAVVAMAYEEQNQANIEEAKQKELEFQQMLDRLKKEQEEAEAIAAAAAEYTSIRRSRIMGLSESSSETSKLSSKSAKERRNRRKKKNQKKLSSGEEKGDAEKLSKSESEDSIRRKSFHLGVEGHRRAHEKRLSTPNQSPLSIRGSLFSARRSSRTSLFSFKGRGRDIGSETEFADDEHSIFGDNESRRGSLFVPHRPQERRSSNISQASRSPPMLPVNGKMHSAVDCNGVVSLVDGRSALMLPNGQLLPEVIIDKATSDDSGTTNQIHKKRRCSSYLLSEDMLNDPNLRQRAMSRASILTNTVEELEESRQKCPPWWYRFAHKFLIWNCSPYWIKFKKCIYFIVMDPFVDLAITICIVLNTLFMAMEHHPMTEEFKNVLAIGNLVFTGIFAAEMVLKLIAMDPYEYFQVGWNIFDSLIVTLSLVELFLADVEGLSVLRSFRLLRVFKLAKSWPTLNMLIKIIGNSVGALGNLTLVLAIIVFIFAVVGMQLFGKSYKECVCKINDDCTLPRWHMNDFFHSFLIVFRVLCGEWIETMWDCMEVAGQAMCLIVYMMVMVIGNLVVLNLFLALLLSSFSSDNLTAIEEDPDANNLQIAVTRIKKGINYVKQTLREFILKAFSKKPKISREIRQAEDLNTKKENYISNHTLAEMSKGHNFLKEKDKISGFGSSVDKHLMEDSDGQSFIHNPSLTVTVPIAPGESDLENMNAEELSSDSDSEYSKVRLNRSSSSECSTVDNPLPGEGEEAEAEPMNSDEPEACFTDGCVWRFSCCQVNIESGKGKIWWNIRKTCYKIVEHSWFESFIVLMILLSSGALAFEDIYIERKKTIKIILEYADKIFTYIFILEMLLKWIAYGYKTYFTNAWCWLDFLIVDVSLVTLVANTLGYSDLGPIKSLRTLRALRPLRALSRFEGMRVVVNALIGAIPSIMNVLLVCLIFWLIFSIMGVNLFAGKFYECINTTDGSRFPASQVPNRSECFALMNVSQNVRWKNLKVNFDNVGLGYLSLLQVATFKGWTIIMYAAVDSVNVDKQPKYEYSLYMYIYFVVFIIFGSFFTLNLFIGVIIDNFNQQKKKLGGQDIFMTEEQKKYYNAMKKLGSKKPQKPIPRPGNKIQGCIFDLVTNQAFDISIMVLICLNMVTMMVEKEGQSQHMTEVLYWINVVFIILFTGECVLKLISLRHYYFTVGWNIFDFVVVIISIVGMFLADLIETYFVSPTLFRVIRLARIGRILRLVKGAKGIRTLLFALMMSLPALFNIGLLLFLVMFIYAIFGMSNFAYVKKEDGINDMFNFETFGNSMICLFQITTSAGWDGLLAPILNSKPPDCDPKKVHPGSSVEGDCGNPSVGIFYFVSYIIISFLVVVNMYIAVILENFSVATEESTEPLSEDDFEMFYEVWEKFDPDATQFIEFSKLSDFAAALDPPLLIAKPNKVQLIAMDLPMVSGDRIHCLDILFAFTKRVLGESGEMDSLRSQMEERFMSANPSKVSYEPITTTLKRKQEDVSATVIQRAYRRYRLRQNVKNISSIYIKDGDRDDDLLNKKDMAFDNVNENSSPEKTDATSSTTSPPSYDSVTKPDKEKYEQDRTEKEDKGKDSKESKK
Procedure, shortened: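 Tetracycline-induced NaV1.7 cells, whole-cell patch clamp at room temperature with compound in CsCl internal solution (pH 7.2), Ringer bath (pH 7.4). Held at −100 mV, steps to −20 mV; after baseline, four 30-s 5 Hz trains. Peak inward current at end of last train divided by baseline gives fraction remaining.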

[2] = target: T1, NaV1.7; experiment: Whole cell patch clamp, external block of NaV1.7 current (compound in external solution); type: cell-based; details: compound applied externally, read-out: Nav1.7 Extracellular Inhibition; for inhibition at 30 µM: % inhibition at test concentration 30 μM
Procedure: Representative compounds of the invention were synthesized according to the described methods and tested for the ability to inhibit voltage-gated sodium channels.
NaV1.7 was expressed upon induction with tetracycline. Cells were cultured in DMEM containing 10% dialyzed Fetal Bovine Serum (VWR, Radnor, Pa.), 1% Glutamax (VWR, Radnor, Pa.), 1% Penicillin-Streptomycin (VWR, Radnor, Pa.), 100 mg/L Hygromycin (Thermo Fisher Scientific, Waltham, Mass. and 5 mg/L Blasticidin (Alfa Aesar, Haverhill, Mass.). Cells were grown and maintained at 37° C. in a humidified environment containing 10% CO2 in air. Cells were detached from the culture flask for passage and harvested using 0.05% Trypsin-EDTA (Thermo Fisher Scientific, Waltham, Mass.). To induce NaV1.7, cells were induced with tetracycline (0.1-1 μg/mL, IBI Scientific, Peosta, Iowa) the day before recording and plated onto 24-well plates. Cells were washed with DPBS (VWR, Radnor, Pa.), trypsinized and then triturated five times in 10 mL of growth media to break apart cell aggregates. For one 24-well plate, 2 mL of cell suspension was mixed with 23 mL of fresh growth media and 0.1-1 μg/mL tetracycline added. 1 ml of mixed media with cells was then added to each well of a 24-well plate, with a 12 mm coverslip already placed in the bottom of the well. Cells were then incubated in 37° C. and 10% CO2 overnight.
The intracellular solution contained the following (in mM) CsCl 135, NaCl 10, EGTA 10, HEPES 10, MgCl2 2, adjusted to pH 7.2 with CsOH. The external solution was a normal Ringer solution containing (in mM) NaCl 155, HEPES 10, glucose 10, KCl 3.5, CaCl2 1.5, MgCl2 1 adjusted to pH 7.4 with NaOH. CsCl is from Alfa Aesar, Haverhill, Mass. All other chemicals are from Sigma-Aldrich, St. Louis, Mo. In order to test the degree of internal block by test compounds the compounds were dissolved in internal solution at the indicated test concentration. […] In order to test the degree of external block by test compounds the compounds were dissolved in external solution at the indicated test concentration.
18-24 hours after cells were induced with tetracycline, coverslips were placed into a chamber filled with Normal Ringer solution at room temperature and the chamber placed on a microscope. Pipettes were pulled from borosilicate glass on a P97 puller (Sutter Instrument, Novato, Calif.) and polished with a MF-830 Microforge (Narishige International USA, Inc, Amityville, N.Y.) to have a resistance of 1.5-2.5 MΩ when filled with CsCl internal solution at room temperature. Healthy cells (those that are round and translucent with no visible blemishes) were chosen for seal formation. A seal was formed between the pipette and the cell, and a brief pulse of suction was used to “break in” and establish the whole-cell configuration. The membrane potential was held at −100 mV before the voltage protocol began. Only cells with series resistance between 1.5-5 MΩ were retained for analysis. The voltage protocol was as follows: Cells were held at −100 mV for 12 ms followed by a hyperpolarizing step to −105 mV for 12 ms to monitor the leak. Cells were then stepped back to −100 mV for 40 ms. Cells were then depolarized to −20 mV for 10 ms and then returned to −100 mV for 26 ms.
Once the recording was started, the voltage protocol was run at 30 second intervals for 5 minutes to get a stable baseline. This is followed by 5 Hz stimulation of the same voltage protocol run until the end of experiment. […] The test compound is added for 5 minutes before washing out with normal Ringer's solution. Currents were recorded using PatchMaster software with Heka EPC10 (HEKA Electronics, Lambrecht, Germany). Only cells with inward current amplitudes at −20 mV between 400 pA and 4 nA were accepted. In addition, cells having leak currents greater than 10% of their current amplitudes were discarded. […]

[3] = PAMPA membrane permeability assay; type: in vitro ADME; details: PAMPA permeability coefficient, GIT lipid, buffer pH 7.4, 4 hours incubation
Procedure, shortened: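 Passive permeability across GIT lipid-coated artificial membrane; compounds at 50 μM in pH 7.4 buffer in donor wells, incubated 4 h. Donor, acceptor and reference concentrations read by UV spectroscopy, permeability coefficient calculated from spectral AUCs.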

inhibition at 32 µM [1] [%]	inhibition at 30 µM [2] [%]	PAMPA (10^−6 cm/s) [3]	inhibition at 1000 µM ([2]; % inhibition at test concentration 1,000 μM) [%]	inhibition at 10 µM [1] [%]	inhibition at 100 µM ([2]; % inhibition at test concentration 100 μM) [%]	SMILES
70 to 95	< 40	+ (<0.1 10^−6 cm/s)				CCc1cccc[n+]1CC(=O)Nc1c(C)cccc1C.[Br-] [Compound 13A]
> 95		++ (0.1-2.0 10^−6 cm/s)	40 to 70			Cc1cccc(C)c1NC(=O)C[n+]1c(C)cccc1C.[Br-] [Compound 6A, 1-(2-((2,6-dimethylphenyl)amino)-2-oxoethyl)-2,6-dimethylpyridin-1-ium bromide]
> 95	< 40	+ (<0.1 10^−6 cm/s)		> 95		Cc1cccc(C)c1NC(=O)C[n+]1cccc(-c2ccccc2)c1.[Br-] [Compound 12A, 1-(2-((2,6-dimethylphenyl)amino)-2-oxoethyl)-3-phenylpyridin-1-ium bromide]
	40 to 70	+ (<0.1 10^−6 cm/s)		70 to 95		CCOC(=O)c1ccc[n+](CC(=O)Nc2c(C)cccc2C)c1.[Br-] [Compound 25A]
70 to 95	< 40	+ (<0.1 10^−6 cm/s)		70 to 95		CCc1ccc[n+](CC(=O)Nc2c(C)cccc2C)c1.[Br-] [Compound 17A]
> 95		++ (0.1-2.0 10^−6 cm/s)		> 95	< 40	Cc1cccc(C)c1NC(=O)C[n+]1ccccc1-c1ccccc1.[Br-] [Compound 16A]
